Measured values published in patent US9540343B2 (Gilead Sciences, Inc., priority 2011, dated 2017).

Experiments:
in vitro = details: human, uninfected MT-4 cells, CC50 (nM), same protocol as Test A, CellTiter-Glo
Procedure, shortened: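 Cytoprotection read-out: CellTiter-Glo chemiluminescence after 5 days at 37 °C of HIV-IIIb-infected MT-4 cells (m.o.i. 0.003) with compound in 10-point 3-fold dilutions, quadruplicate, 10% FBS. Cytotoxicity (CC50) measured identically without virus.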

HIV-IIIb = assay: Test A: Antiviral assay in MT4 cells; assay type: cell-based, HIV-1; details: Human immunodeficiency virus 1, IIIB, MT4, 120 h, read-out: % inhibition at 2 μM, percent inhibition of virus-induced cell killing, from dose response curve at 2 uM drug; MT-4 cells infected with HIV-IIIb, 5 days, CellTiter-Glo

## NC(=O)c1cccc(-c2cncnc2[C@H](Cc2cc(F)cc(F)c2)NC(=O)Cc2c[nH]c3ccc(O)cc23)c1 [Example 327, (S)-3-(4-(2-(3,5-difluorophenyl)-1-(2-(5-hydroxy-1H-indol-3-yl)acetamido)ethyl)pyrimidin-5-yl)benzamide]
In vitro
  CC50 at 5 days: > 53200 nM
HIV-IIIb
  inhibition at 2 µM: 94%

## O=C(Cc1c[nH]c2ccc(F)cc12)NC(Cc1cc(F)cc(F)c1)c1nc[nH]c(=O)c1-c1ccc(Cl)cc1 (stereo not shown) [Example 328, N-(1-(5-(4-chlorophenyl)-6-oxo-1,6-dihydropyrimidin-4-yl)-2-(3,5-difluorophenyl)ethyl)-2-(5-fluoro-1H-indol-3-yl)acetamide]
In vitro
  CC50 at 5 days: 10000 nM
HIV-IIIb
  inhibition at 2 µM: 0%

## CCOCc1cn(CC(=O)N[C@@H](Cc2cc(F)cc(F)c2)c2ncccc2-c2ccc(F)c(C(N)=O)c2)nc1C(F)(F)F [Example 330, (S)-5-(2-(2-(3,5-difluorophenyl)-1-(2-(4-(ethoxymethyl)-3-(trifluoromethyl)-1H-pyrazol-1-yl)acetamido)ethyl)pyridin-3-yl)-2-fluorobenzamide]
In vitro
  CC50 at 5 days: 29300 nM
HIV-IIIb
  inhibition at 2 µM: 3%

## O=C(Cc1c[nH]c2ccc(=O)[nH]c12)N[C@@H](Cc1cc(F)cc(F)c1)c1ncncc1-c1ccc(Cl)cc1 [Example 331B, (S)—N-(1-(5-(4-chlorophenyl)pyrimidin-4-yl)-2-(3,5-difluorophenyl)ethyl)-2-(5-oxo-4,5-dihydro-1H-pyrrolo[3,2-b]pyridin-3-yl)acetamide]
In vitro
  CC50 at 5 days: 43100 nM
HIV-IIIb
  inhibition at 2 µM: 99%

## NC(=O)c1cc(-c2cccnc2[C@H](Cc2cc(F)cc(F)c2)NC(=O)COc2ccnc(Cl)c2)ccc1F [Example 332B, (S)-5-(2-(1-(2-(2-chloropyridin-4-yloxy)acetamido)-2-(3,5-difluorophenyl)ethyl)pyridin-3-yl)-2-fluorobenzamide]
In vitro
  CC50 at 5 days: 40000 nM
HIV-IIIb
  inhibition at 2 µM: 2%

## CNCc1cn(CC(=O)N[C@@H](Cc2cc(F)cc(F)c2)c2ncccc2-c2ccc(F)c(C(N)=O)c2)nc1C(F)(F)F [Example 333, (S)-5-(2-(2-(3,5-difluorophenyl)-1-(2-(4-((methylamino)methyl)-3-(trifluoromethyl)-1H-pyrazol-1-yl)acetamido)ethyl)pyridin-3-yl)-2-fluorobenzamide]
In vitro
  CC50 at 5 days: > 53200 nM
HIV-IIIb
  inhibition at 2 µM: 2%

## NC(=O)c1cc(-c2cccnc2[C@H](Cc2cc(F)cc(F)c2)NC(=O)Cn2nc(C(F)F)c3c2C(F)(F)CCC3O)ccc1F (stereo partly drawn) [Example 334, 5-(2-((1S)-1-(2-(3-(difluoromethyl)-7,7-difluoro-4-hydroxy-4,5,6,7-tetrahydro-1H-indazol-1-yl)acetamido)-2-(3,5-difluorophenyl)ethyl)pyridin-3-yl)-2-fluorobenzamide]
In vitro
  CC50 at 5 days: 26500 nM
HIV-IIIb
  inhibition at 2 µM: 63%

## NC(=O)c1cc(-c2cccnc2[C@H](Cc2cc(F)cc(F)c2)NC(=O)Cn2cc(CNC3CC3)c(C(F)(F)F)n2)ccc1F [Example 335, (S)-5-(2-(1-(2-(4-((cyclopropylamino)methyl)-3-(trifluoromethyl)-1H-pyrazol-1-yl)acetamido)-2-(3,5-difluorophenyl)ethyl)pyridin-3-yl)-2-fluorobenzamide]
In vitro
  CC50 at 5 days: 51100 nM
HIV-IIIb
  inhibition at 2 µM: 3%

## NC(=O)c1cc(-c2cccnc2[C@H](Cc2cc(F)cc(F)c2)NC(=O)Cn2cnc3c(=O)[nH]ccc32)ccc1F [Example 336, (S)-5-(2-(2-(3,5-difluorophenyl)-1-(2-(4-oxo-4,5-dihydro-1H-imidazo[4,5-c]pyridin-1-yl)acetamido)ethyl)pyridin-3-yl)-2-fluorobenzamide]
In vitro
  CC50 at 5 days: > 53200 nM
HIV-IIIb
  inhibition at 2 µM: 0%

## N#Cc1nn(CC(=O)N[C@@H](Cc2cc(F)cc(F)c2)c2ncccc2-c2ccc(F)c(C(N)=O)c2)cc1C1CC1 [Example 337, (S)-5-(2-(1-(2-(3-cyano-4-cyclopropyl-1H-pyrazol-1-yl)acetamido)-2-(3,5-difluorophenyl)ethyl)pyridin-3-yl)-2-fluorobenzamide]
In vitro
  CC50 at 5 days: 27900 nM
HIV-IIIb
  inhibition at 2 µM: 20%

## NC(=O)c1cccc(-c2cccnc2[C@H](Cc2cc(F)cc(F)c2)NC(=O)Cc2c[nH]c3cc(C4CC4)c(=O)[nH]c23)c1 [Example 338C, (S)-3-(2-(1-(2-(6-cyclopropyl-5-oxo-4,5-dihydro-1H-pyrrolo[3,2-b]pyridin-3-yl)acetamido)-2-(3,5-difluorophenyl)ethyl)pyridin-3-yl)benzamide]
In vitro
  CC50 at 5 days: > 53000 nM
HIV-IIIb
  inhibition at 2 µM: 35%

## NC(=O)c1cc(-c2cccnc2[C@H](Cc2cc(F)cc(F)c2)NC(=O)Cn2nc(C(F)(F)F)c3c2CCC=C3)ccc1F [Example 339B, (S)-5-(2-(2-(3,5-difluorophenyl)-1-(2-(3-(trifluoromethyl)-6,7-dihydro-1H-indazol-1-yl)acetamido)ethyl)pyridin-3-yl)-2-fluorobenzamide]
In vitro
  CC50 at 5 days: 19400 nM
HIV-IIIb
  inhibition at 2 µM: 53%

## NC(=O)c1cc(-c2cccnc2[C@H](Cc2cc(F)cc(F)c2)NC(=O)Cn2nc(C(F)(F)F)c3c2C(F)(F)CCC3=O)ccc1F [Example 340B, (S)-5-(2-(1-(2-(7,7-difluoro-4-oxo-3-(trifluoromethyl)-4,5,6,7-tetrahydro-1H-indazol-1-yl)acetamido)-2-(3,5-difluorophenyl)ethyl)pyridin-3-yl)-2-fluorobenzamide]
In vitro
  CC50 at 5 days: 32800 nM
HIV-IIIb
  inhibition at 2 µM: 32%

## C#Cc1cn(CC(=O)N[C@@H](Cc2cc(F)cc(F)c2)c2ncccc2-c2ccc(F)c(C(N)=O)c2)nc1C(F)(F)F [Example 341, (S)-5-(2-(2-(3,5-difluorophenyl)-1-(2-(4-ethynyl-3-(trifluoromethyl)-1H-pyrazol-1-yl)acetamido)ethyl)pyridin-3-yl)-2-fluorobenzamide]
In vitro
  CC50 at 5 days: 26600 nM
HIV-IIIb
  inhibition at 2 µM: 13%

## NC(=O)c1cc(-c2cccnc2[C@H](Cc2cc(F)cc(F)c2)NC(=O)Cn2nc(C(F)(F)F)c3c2C2CC2CC3)ccc1F (stereo partly drawn) [Example 342C, 5-(2-((1S)-2-(3,5-difluorophenyl)-1-(2-(3-(trifluoromethyl)-5,5a,6,6a-tetrahydrocyclopropa[g]indazol-1(4H)-yl)acetamido)ethyl)pyridin-3-yl)-2-fluorobenzamide]
In vitro
  CC50 at 5 days: 13700 nM
HIV-IIIb
  inhibition at 2 µM: 119%

## CCc1c(C2CC2)c(C(F)(F)F)nn1CC(=O)N[C@@H](Cc1cc(F)cc(F)c1)c1ncccc1-c1ccc(F)c(C(N)=O)c1 [Example 343, (S)-5-(2-(1-(2-(4-cyclopropyl-5-ethyl-3-(trifluoromethyl)-1H-pyrazol-1-yl)acetamido)-2-(3,5-difluorophenyl)ethyl)pyridin-3-yl)-2-fluorobenzamide]
In vitro
  CC50 at 5 days: 15500 nM
HIV-IIIb
  inhibition at 2 µM: 62%

## Cc1cc(=O)n(CC(=O)N[C@@H](Cc2cc(F)cc(F)c2)c2ncccc2-c2cccc(S(N)(=O)=O)c2)c2ccccc12 [Example 345, (S)—N-(2-(3,5-difluorophenyl)-1-(3-(3-sulfamoylphenyl)pyridin-2-yl)ethyl)-2-(4-methyl-2-oxoquinolin-1(2H)-yl)acetamide]
In vitro
  CC50 at 5 days: 12400 nM
HIV-IIIb
  inhibition at 2 µM: 21%

## NC(=O)c1cc(-c2cccnc2[C@H](Cc2cc(F)cc(F)c2)NC(=O)Cn2nc3c(c2C(F)(F)F)C(=O)C2CC32)ccc1F (stereo partly drawn) [Example 346D, 5-(2-((1S)-2-(3,5-difluorophenyl)-1-(2-(4-oxo-3-(trifluoromethyl)-4,4-a,5,5a-tetrahydro-2H-cyclopropa[4,5]cyclopenta[1,2-c]pyrazol-2-yl)acetamido)ethyl)pyridin-3-yl)-2-fluorobenzamide]
In vitro
  CC50 at 5 days: 39000 nM
HIV-IIIb
  inhibition at 2 µM: 1%

## CC1(O)CCCc2c(C(F)F)nn(CC(=O)N[C@@H](Cc3cc(F)cc(F)c3)c3ncccc3-c3ccc(F)c(C(N)=O)c3)c21 (stereo partly drawn) [Example 349B, 5-(2-((1S)-1-(2-(3-(difluoromethyl)-7-hydroxy-7-methyl-4,5,6,7-tetrahydro-1H-indazol-1-yl)acetamido)-2-(3,5-difluorophenyl)ethyl)pyridin-3-yl)-2-fluorobenzamide]
In vitro
  CC50 at 5 days: 40800 nM
HIV-IIIb
  inhibition at 2 µM: 94%

## NC(=O)c1cc(-c2cccnc2[C@H](Cc2cc(F)cc(F)c2)NC(=O)Cn2cc(C(F)F)c(C(F)(F)F)n2)ccc1F [Example 350, (S)-5-(2-(1-(2-(4-(difluoromethyl)-3-(trifluoromethyl)-1H-pyrazol-1-yl)acetamido)-2-(3,5-difluorophenyl)ethyl)pyridin-3-yl)-2-fluorobenzamide]
In vitro
  CC50 at 5 days: 28100 nM
HIV-IIIb
  inhibition at 2 µM: 10%

## O=C(Cn1nc(C(F)(F)F)c2c1CCCC2)N[C@@H](Cc1cc(F)cc(F)c1)c1ncncc1-c1ccc(Cl)cc1 [Example 351, (S)—N-(1-(5-(4-chlorophenyl)pyrimidin-4-yl)-2-(3,5-difluorophenyl)ethyl)-2-(3-(trifluoromethyl)-4,5,6,7-tetrahydro-1H-indazol-1-yl)acetamide]
In vitro
  CC50 at 5 days: 8600 nM
HIV-IIIb
  inhibition at 2 µM: 95%

## Cc1cc2ncn(CC(=O)N[C@@H](Cc3cc(F)cc(F)c3)c3ncccc3-c3cccc(S(=O)(=O)NC4CC4)c3)c2cc1C [Example 353B, (S)—N-(1-(3-(3-(N-cyclopropylsulfamoyl)phenyl)pyridin-2-yl)-2-(3,5-difluorophenyl)ethyl)-2-(5,6-dimethyl-1H-benzo[d]imidazol-1-yl)acetamide]
In vitro
  CC50 at 5 days: 12700 nM
HIV-IIIb
  inhibition at 2 µM: 110%

## Cc1cc2[nH]cc(CC(=O)N[C@@H](Cc3cc(F)cc(F)c3)c3ncccc3-c3cccc(C(N)=O)c3)c2[nH]c1=O [Example 354, (S)-3-(2-(2-(3,5-difluorophenyl)-1-(2-(6-methyl-5-oxo-4,5-dihydro-1H-pyrrolo[3,2-b]pyridin-3-yl)acetamido)ethyl)pyridin-3-yl)benzamide]
In vitro
  CC50 at 5 days: > 53000 nM
HIV-IIIb
  inhibition at 2 µM: 82%
